Laboratory results as given in PubChem BioAssay (NCI).
Several values for one entry are separate records, joined by “and”; a condition that tells them apart may be missing. Equal entries are not always repeated.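 Following 48 hours of exposure in 96-well plates, responses at five concentrations were used to interpolate endpoints linearly. GI50: concentration for 50% inhibition of growth. At the TGI there is no net growth.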

Key:
Assay in all cases: growth of human tumour cells (NCI), 48 h
786-0 renal = test system: 786-0 renal
A498 renal = test system: A498 renal
LOX IMVI melanoma = test system: LOX IMVI melanoma
NCI-H23 lung = test system: NCI-H23 lung
OVCAR-5 ovarian = test system: OVCAR-5 ovarian
SK-MEL-2 melanoma = test system: SK-MEL-2 melanoma
SK-OV-3 ovarian = test system: SK-OV-3 ovarian
SNB-75 CNS = test system: SNB-75 CNS
SR leukemia = test system: SR leukemia
T-47D breast = test system: T-47D breast

| SMILES | GI50 (786-0 renal) | TGI (786-0 renal) | GI50 (A498 renal) | TGI (A498 renal) | GI50 (LOX IMVI melanoma) | TGI (LOX IMVI melanoma) | GI50 (NCI-H23 lung) | TGI (NCI-H23 lung) | GI50 (OVCAR-5 ovarian) | TGI (OVCAR-5 ovarian) | GI50 (SK-MEL-2 melanoma) | TGI (SK-MEL-2 melanoma) | GI50 (SK-OV-3 ovarian) | TGI (SK-OV-3 ovarian) | GI50 (SNB-75 CNS) | TGI (SNB-75 CNS) | GI50 (SR leukemia) [µM] | TGI (SR leukemia) [µM] | GI50 (T-47D breast) | TGI (T-47D breast) |
| --- | --- | --- | --- | --- | --- | --- | --- | --- | --- | --- | --- | --- | --- | --- | --- | --- | --- | --- | --- | --- |
| COc1ccc(-c2nc3ncccn3c2/C=C/C(=O)c2cc(OC)c(OC)c(OC)c2)cc1 | 1.84 µM | 5.51 µM | 2.13 µM | 6.28 µM | 1.46 µM | 3 µM | 1.35 µM | 3.37 µM | 1.53 µM | 3.59 µM | 1.87 µM | 4.69 µM | 2.5 µM | 7.01 µM | 1.89 µM | 5.05 µM | 1.53 | > 100 | 2.53 µM | 14.9 µM |
| CC1(C)CC(n2cnc(-c3ccc(F)cc3)c2-c2ccnc(N)n2)CC(C)(C)N1 | > 25 µM | > 25 µM | > 25 µM | > 25 µM | > 19.7 µM | > 25 µM | > 25 µM | > 25 µM | 24.4 µM | > 25 µM | > 25 µM | > 25 µM | 23.6 µM | > 25 µM | > 16.5 µM | > 25 µM | > 19.3 | > 25 | 24.3 µM | > 25 µM |
| CC1=C2C[C@H]3[C@@H](CC=C4C[C@@H](O)CC[C@@]43C)[C@@H]2CC[C@]12O[C@@H]1C[C@H](C)CN[C@H]1[C@H]2C | 15.5 µM and 17.3 µM | 50 µM and 33.4 µM | 43.2 µM and 19.4 µM | 50 µM and 37.9 µM | 10.5 µM and 16.9 µM | 31.8 µM and 33.5 µM | 29 µM and 29.7 µM | 50 µM and > 100 µM | 11.9 µM and 29.4 µM | 50 µM and 89.6 µM | 12.3 µM and 23.4 µM | 38.4 µM and 51.6 µM | 14.2 µM and 13.9 µM | 28.2 µM and 34.7 µM | > 50 µM and 18.8 µM | > 50 µM and 42.7 µM | 3.42 | 21.9 | 13.3 µM and 16.7 µM | 32.8 µM and 34.9 µM |
| O=C1c2cc([N+](=O)[O-])ccc2-c2cccc(F)c21 | – | > 100 µM | – | > 100 µM | – | > 100 µM | – | > 100 µM | – | > 100 µM | – | 55.7 µM | – | > 100 µM | – | > 100 µM | – | > 100 | – | 66.1 µM |
| NC(=N\N=C/c1cccc([N+](=O)[O-])c1)/C(N)=N\N=C/c1cccc([N+](=O)[O-])c1 | > 100 µM | > 100 µM | > 100 µM | > 100 µM | > 100 µM | > 100 µM | > 100 µM | > 100 µM | > 100 µM | > 100 µM | > 100 µM | > 100 µM | > 100 µM | > 100 µM | > 100 µM | > 100 µM | > 100 | > 100 | > 100 µM | > 100 µM |
| O=C(CC12CC3CC(CC(C3)C1)C2)NCCOCCOCCOCCNC(=O)c1cc2c(o1)C(=O)c1ccccc1C2=O | 2.55 µM | 8.87 µM | 1.59 µM | 3.12 µM | 0.712 µM | 2.4 µM | 0.173 µM | 1.09 µM | 1.75 µM | 3.17 µM | 1.64 µM | 3.93 µM | 2.55 µM | 6.06 µM | 2.02 µM | 3.51 µM | 1.67 | 8.76 | 1.74 µM | 5.86 µM |
| O=C1NC(=S)NC(=O)C1=Cc1cccc2cc3ccccc3cc12 | – | 3.42 µM | – | 3.63 µM | – | 4.49 µM | – | 4.62 µM | – | 5.21 µM | – | 4.1 µM | – | 8.79 µM | – | 3.7 µM | – | > 20 | – | 3.86 µM |
| CCCN1CCN(c2ccc3nc(-c4ccc5nc(-c6cc(OC)ccc6OC)[nH]c5c4)[nH]c3c2)CC1 | 1.93 µM | 3.41 µM | 15.6 µM | 30.4 µM | 1.73 µM | 3.26 µM | 1.93 µM | 3.85 µM | 17.8 µM | 34.2 µM | 19.7 µM | 37.2 µM | – | – | 12.8 µM | 26.2 µM | 2.55 | 5.54 | 21.6 µM | 54.1 µM |
| COc1ccc(C2=C(c3ccc(OC)c(OC)c3)C(=O)OC2)cc1 | < 0.01 µM | – | 0.0803 µM | 42.3 µM | < 0.01 µM | > 39.1 µM | 0.023 µM | > 100 µM | 0.545 µM | > 100 µM | – | > 100 µM | – | > 100 µM | – | – | < 0.01 | 0.0192 | 1.66 µM | > 91.8 µM |
| O=CN1N=C(c2ccc(Cl)cc2)CC1c1cccc(Nc2ccnc3cc(Cl)ccc23)c1 (stereo not given) | 2.96 µM | 14.5 µM | 0.977 µM | 8.97 µM | 1.29 µM | 3.42 µM | 1.07 µM | > 100 µM | 9.42 µM | > 100 µM | – | – | 2.9 µM | > 100 µM | 1.7 µM | > 100 µM | 0.404 | 3.76 | 0.817 µM | 17.7 µM |
| Cc1cc2cc3c(C)cc(=O)oc3c(C)c2o1 | – | > 100 µM | – | > 100 µM | – | > 100 µM | – | > 100 µM | – | > 100 µM | – | > 100 µM | – | – | – | > 100 µM | – | > 100 | – | > 100 µM |
